From the supplement of paper PMC10307832

Experiments:
Assay in all cases: relative viability (nuclei count vs DMSO), 5 days (fraction); higher = more cells survive
A-427 = test system: A-427
How it was run: (§1)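 Dosing by pin tool came one day after lung cancer cell lines were seeded in 1536-well plates, using either one drug or a fixed anchor-drug dose plus five library-drug doses (not always all listed) in √10 steps. After 5 days, nuclei were counted on 4× images. Relative viability is treated-well nuclei count divided by vehicle-well nuclei count, and values are medians of duplicate plates.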

HCC-366 = test system: HCC-366
How it was run: as §1

HCC-827 = test system: HCC-827
How it was run: as §1

LC-2-ad = test system: LC-2-ad
How it was run: as §1

NCI-H1355 = test system: NCI-H1355
How it was run: as §1

NCI-H1734 = test system: NCI-H1734
How it was run: as §1

NCI-H1755 = test system: NCI-H1755
How it was run: as §1

NCI-H1792 = test system: NCI-H1792
How it was run: as §1

NCI-H1915 = test system: NCI-H1915
How it was run: as §1

NCI-H1975 = test system: NCI-H1975
How it was run: as §1

NCI-H1993 = test system: NCI-H1993
How it was run: as §1

NCI-H2170 = test system: NCI-H2170
How it was run: as §1

NCI-H2228 = test system: NCI-H2228
How it was run: as §1

NCI-H2347 = test system: NCI-H2347
How it was run: as §1

NCI-H23 = test system: NCI-H23
How it was run: as §1

RERF-LC-KJ = test system: RERF-LC-KJ
How it was run: as §1

SK-LU-1 = test system: SK-LU-1
How it was run: as §1

SK-MES-1 = test system: SK-MES-1
How it was run: as §1

SW 1573 = test system: SW 1573
How it was run: as §1

UMC-11 = test system: UMC-11
How it was run: as §1

## Cc1csc(=NC2CCCCC2)n1/N=C/c1ccc(O)c(O)c1O [MIM1] + CC1(C)CCC(c2ccc(Cl)cc2)=C(CN2CCN(c3ccc(C(=O)NS(=O)(=O)c4ccc(N[C@H](CCN5CCOCC5)CSc5ccccc5)c(S(=O)(=O)C(F)(F)F)c4)cc3)CC2)C1 [Navitoclax] (partner 0.5 µM)
A-427; first compound 0.2 µM
  relative viability: 0.972
A-427; first compound 0.6325 µM
  relative viability: 1.02
A-427; first compound 2 µM
  relative viability: 0.981
A-427; first compound 6.325 µM
  relative viability: 0.986
A-427; first compound 20 µM
  relative viability: 0.555
HCC-366; first compound 0.2 µM
  relative viability: 1.06
HCC-366; first compound 0.6325 µM
  relative viability: 0.943
HCC-366; first compound 2 µM
  relative viability: 0.809
HCC-366; first compound 6.325 µM
  relative viability: 1
HCC-366; first compound 20 µM
  relative viability: 0.0645
HCC-827; first compound 0.2 µM
  relative viability: 0.961
HCC-827; first compound 0.6325 µM
  relative viability: 1.01
HCC-827; first compound 2 µM
  relative viability: 0.977
HCC-827; first compound 6.325 µM
  relative viability: 0.39
HCC-827; first compound 20 µM
  relative viability: 0.696
LC-2-ad; first compound 0.2 µM
  relative viability: 0.491
LC-2-ad; first compound 0.6325 µM
  relative viability: 0.516
LC-2-ad; first compound 2 µM
  relative viability: 0.498
LC-2-ad; first compound 6.325 µM
  relative viability: 0.251
LC-2-ad; first compound 20 µM
  relative viability: 0.135
NCI-H1355; first compound 0.2 µM
  relative viability: 0.977
NCI-H1355; first compound 0.6325 µM
  relative viability: 1.03
NCI-H1355; first compound 2 µM
  relative viability: 1.07
NCI-H1355; first compound 6.325 µM
  relative viability: 0.793
NCI-H1355; first compound 20 µM
  relative viability: 0.95
NCI-H1734; first compound 0.2 µM
  relative viability: 0.807
NCI-H1734; first compound 0.6325 µM
  relative viability: 0.908
NCI-H1734; first compound 2 µM
  relative viability: 0.783
NCI-H1734; first compound 6.325 µM
  relative viability: 0.467
NCI-H1734; first compound 20 µM
  relative viability: 0.202
NCI-H1755; first compound 0.2 µM
  relative viability: 1.01
NCI-H1755; first compound 0.6325 µM
  relative viability: 0.995
NCI-H1755; first compound 2 µM
  relative viability: 1.03
NCI-H1755; first compound 6.325 µM
  relative viability: 0.703
NCI-H1755; first compound 20 µM
  relative viability: 0.557
NCI-H1792; first compound 0.2 µM
  relative viability: 0.59
NCI-H1792; first compound 0.6325 µM
  relative viability: 0.484
NCI-H1792; first compound 2 µM
  relative viability: 0.559
NCI-H1792; first compound 6.325 µM
  relative viability: 0.501
NCI-H1792; first compound 20 µM
  relative viability: 0.245
NCI-H1915; first compound 0.2 µM
  relative viability: 0.791
NCI-H1915; first compound 0.6325 µM
  relative viability: 0.696
NCI-H1915; first compound 2 µM
  relative viability: 0.781
NCI-H1915; first compound 6.325 µM
  relative viability: 0.62
NCI-H1915; first compound 20 µM
  relative viability: 0.656
NCI-H1975; first compound 0.2 µM
  relative viability: 1.16
NCI-H1975; first compound 0.6325 µM
  relative viability: 1.23
NCI-H1975; first compound 2 µM
  relative viability: 1.04
NCI-H1975; first compound 6.325 µM
  relative viability: 0.732
NCI-H1975; first compound 20 µM
  relative viability: 0.761
NCI-H1993; first compound 0.2 µM
  relative viability: 0.911
NCI-H1993; first compound 0.6325 µM
  relative viability: 0.951
NCI-H1993; first compound 2 µM
  relative viability: 0.854
NCI-H1993; first compound 6.325 µM
  relative viability: 0.822
NCI-H1993; first compound 20 µM
  relative viability: 0.425
NCI-H2170; first compound 0.2 µM
  relative viability: 0.571
NCI-H2170; first compound 0.6325 µM
  relative viability: 0.636
NCI-H2170; first compound 2 µM
  relative viability: 0.549
NCI-H2170; first compound 6.325 µM
  relative viability: 0.468
NCI-H2170; first compound 20 µM
  relative viability: 0.298
NCI-H2228; first compound 0.2 µM
  relative viability: 0.959
NCI-H2228; first compound 0.6325 µM
  relative viability: 0.916
NCI-H2228; first compound 2 µM
  relative viability: 0.874
NCI-H2228; first compound 6.325 µM
  relative viability: 0.274
NCI-H2228; first compound 20 µM
  relative viability: 0.157
NCI-H2347; first compound 0.2 µM
  relative viability: 0.661
NCI-H2347; first compound 0.6325 µM
  relative viability: 0.776
NCI-H2347; first compound 2 µM
  relative viability: 0.812
NCI-H2347; first compound 6.325 µM
  relative viability: 0.544
NCI-H2347; first compound 20 µM
  relative viability: 0.408
NCI-H23; first compound 0.2 µM
  relative viability: 0.631
NCI-H23; first compound 2 µM
  relative viability: 0.632
NCI-H23; first compound 6.325 µM
  relative viability: 0.934
NCI-H23; first compound 20 µM
  relative viability: 0.242
RERF-LC-KJ; first compound 0.2 µM
  relative viability: 0.848
RERF-LC-KJ; first compound 0.6325 µM
  relative viability: 0.725
RERF-LC-KJ; first compound 2 µM
  relative viability: 0.534
RERF-LC-KJ; first compound 6.325 µM
  relative viability: 0.568
RERF-LC-KJ; first compound 20 µM
  relative viability: 0.245
SK-LU-1; first compound 0.2 µM
  relative viability: 0.708
SK-LU-1; first compound 0.6325 µM
  relative viability: 0.78
SK-LU-1; first compound 2 µM
  relative viability: 0.957
SK-LU-1; first compound 6.325 µM
  relative viability: 0.824
SK-LU-1; first compound 20 µM
  relative viability: 0.841
SK-MES-1; first compound 0.2 µM
  relative viability: 1.29
SK-MES-1; first compound 0.6325 µM
  relative viability: 1.26
SK-MES-1; first compound 2 µM
  relative viability: 1.28
SK-MES-1; first compound 6.325 µM
  relative viability: 0.939
SK-MES-1; first compound 20 µM
  relative viability: 0.795
SW 1573; first compound 0.2 µM
  relative viability: 0.973
SW 1573; first compound 0.6325 µM
  relative viability: 0.967
SW 1573; first compound 2 µM
  relative viability: 1.08
SW 1573; first compound 6.325 µM
  relative viability: 0.909
SW 1573; first compound 20 µM
  relative viability: 0.549
UMC-11; first compound 0.2 µM
  relative viability: 0.32
UMC-11; first compound 0.6325 µM
  relative viability: 0.298
UMC-11; first compound 2 µM
  relative viability: 0.36
UMC-11; first compound 6.325 µM
  relative viability: 0.208
UMC-11; first compound 20 µM
  relative viability: 0.145
